Results taken from paper PMC9218685, “Legume Plant Peptides as Sources of Novel Antimicrobial Molecules Against Human Pathogens” (Frontiers in Molecular Biosciences, 2022).
Values after ≈ are worked out from the molar mass of the structure shown. “Also recorded” adds a separate entry of the source. Where two headings read alike, the source gives them in different places. Peptide text beside a SMILES is read from it.

Legend:
A. baumannii = assay: Scanning electron microscopy of cell morphology; assay type: cell-based, Acinetobacter baumannii; settings: 30 min treatment, peptide 1.6 or 3.125 µM as in Figure 3 legend
Experimental: (§1) A. baumannii and C. albicans were grown and treated the same way as for the membrane permeability assay. Cells were then fixed with 2.5% (v/v) glutaraldehyde in phosphate buffered saline (PBS, pH 7.4). 5 μl of the above bacterial and yeast suspensions were spotted on a silicon disk coated with 0.01% Poly-L-Lysine. The filters were washed twice with PBS and gradually dehydrated with ethanol series (30, 50, 70, 80%, and three times 100% ethanol, each for minimum 30 min). The samples were dried with a critical point dryer (K850: Quorum Technologies Ltd.), followed by 12 nm gold coating and observed under a JEOL JSM-7100F/LV scanning electron microscope.
FIGURE 3 Viability, membrane permeability and morphology of A. baumannii cells after NCR treatment (A–L) SYTO9/PI staining observed with confocal microscope, (M–X) Cell morphology observed with SEM. (A,M) untreated control, (B,N) CaNCR13, 3.125 µM, (C,O) CaNCR63, 3.125 µM, (D,P) CaNCR63_1-20, 3.125 µM, (E,Q) CaNCR63_15-34, 3.125 µM, (F,R) MsNCR443, 3.125 µM, (G,S) MsNCR463_16-35, 1.6 µM, (H,T) MsNCR463_17-30, 3.125 µM, (I,U) PsNCR349, 1.6 µM, (J,V) PsNCR349_26-50, 3.125 µM, (K,W) PsNCR349_31-50, 3.125 µM, (L,X) PsNCR352, 1.6 µM.

[1] = tested on: E. coli, S. enteritidis, P. aeruginosa, L. monocytogenes, S. aureus, E. faecalis, K. pneumoniae and A. baumannii; assay: Antimicrobial activity assay, spectrum over the eight tested pathogenic bacteria; assay type: cell-based; settings: 3 h treatment of ~10^7 log phase bacteria, peptides 25 to 0.8 µM; active = MBC ≤25 µM
Procedure, shortened: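 Log-phase bacteria (~10^7) treated 3 h with NCR peptides in potassium-phosphate buffer pH 7.4, two-fold dilutions from 25 µM to 0.8 µM. MBC is the lowest concentration completely eliminating viable bacteria. Strains: E. faecalis ATCC 29212, S. aureus HNCMO112011, L. monocytogenes ATCC 19111, P. aeruginosa ATCC 27853, E. coli ATCC 8739, S. enterica ATCC 13076, K. pneumoniae NCTC 13440, A. baumannii ATCC 17978.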

C. albicans = assay: Scanning electron microscopy of cell morphology; assay type: cell-based, Candida albicans; settings: 30 min treatment, peptide 1.6, 3.125 or 25 µM as in Figure 4 legend
Experimental: as §1

[2] = tested on: Lambda DNA/HindIII marker; assay: Gel retardation assay (DNA aggregation); assay type: binding; settings: 100 ng DNA, 5 or 10 µM peptide in water, 30 min at room temperature, 1% agarose gel
Experimental: Interactions of peptides with DNA was visualized with gel retardation assay ([Hsu et al., 2005]). 100 ng Lambda DNA/HindIII marker (ThermoFisher Scientific) was incubated with 0, 5 or 10 µM synthetic NCRs or NCR derivatives in water for 30 min at room temperature and then loaded into 1% agarose gel. Electrophoresis of DNA fragments separated the mobile HindIII-digested DNA fragments while the aggregated DNA remained in the loading wells.
FIGURE 6 Aggregation of DNA by NCR peptides. Lambda HindIII digested DNA was incubated without (0) or with NCR peptides at 5 or 10 μM concentration.

[3] = tested on: Acinetobacter baumannii (ATCC 17978); assay: microbe, parasite or virus in culture; assay type: cell-based; settings: read-out: MBC, minimal bactericidal concentration against A. baumannii
Procedure, shortened: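 Complete loss of viable bacteria after 3 h defined the MBC. Two-fold peptide series, 25 µM top concentration, ~10^7 log-phase cells in potassium-phosphate buffer pH 7.4.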

[4] = tested on: Candida albicans W01 strain; assay: microbe, parasite or virus in culture; assay type: cell-based; settings: read-out: MFC, minimal fungicidal concentration against C. albicans
Text: The following pathogenic bacterial strains were used: The Gram-positive Enterococcus faecalis (ATCC 29212), Staphylococcus aureus (HNCMO112011), Listeria monocytogenes (ATCC 19111) and the Gram-negative Pseudomonas aeruginosa (ATCC 27853), Escherichia coli (ATCC 8739), Salmonella enterica (ATCC 13076), Klebsiella pneumoniae (NCTC 13440), Acinetobacter baumannii (ATCC 17978) obtained from the ATCC (United States) and NCTC (National Collection of Type Cultures–England). For the antifungal experiment the Candida albicans W01 strain ([Ördögh et al., 2014]) was used. Antimicrobial activities of peptides against ∼10^7 log phase bacteria were tested in Potassium-Phosphate Buffer (PPB, pH 7.4) as described by [Jenei et al. (2020)] while anti-Candida assays were done according to [Szerencsés et al. (2021)]. The two-fold dilution series of peptides ranged from 25 μM to 0.125 μM, while that of the antibiotics ampicillin (Merck) and miconazole (Duchefa Biochemie) from […] to 0.1 μM. The lowest concentration of the antimicrobial agents, which completely eliminated viable bacteria or C. albicans were considered as the minimal bactericidal concentration (MBC) and minimal fungicidal concentration (MFC).

[5] = ~10^7 log phase bacteria, Potassium-Phosphate Buffer pH 7.4, 3 h treatment, two-fold dilution series, lowest concentration completely eliminating viable bacteria

Row | Compound | Morphology of A. baumannii cells by SEM (A. baumannii) | Antibacterial spectrum over the eight tested bacterial strains [1] | Morphology of C. albicans cells by SEM (C. albicans) | Aggregation of HindIII-digested λ DNA (DNA retained in loading wells) [2] | MBC [3, 5] | MBC ([3]; ATCC 17978, 3 h, pH 7.4) | MFC ([4]; W01 strain) | MFC ([4]; C. albicans W01, two-fold dilution series, lowest concentration completely eliminating viable C. albicans)
1 | CC[C@H](C)[C@H](NC(=O)[C@H](CCCNC(=N)N)NC(=O)[C@@H](NC(=O)[C@H](CS)NC(=O)[C@H](CCCCN)NC(=O)[C@H](CS)NC(=O)[C@H](Cc1ccccc1)NC(=O)CNC(=O)[C@H](CC(N)=O)NC(=O)[C@@H](NC(=O)[C@H](CS)NC(=O)[C@H](CCCCN)NC(=O)[C@@H]1CCCN1C(=O)[C@@H](NC(=O)[C@H](CCCCN)NC(=O)[C@@H]1CCCN1C(=O)[C@H](CCCCN)NC(=O)[C@H](CCCNC(=N)N)NC(=O)[C@H](CS)NC(=O)[C@H](C)NC(=O)[C@H](Cc1ccccc1)NC(=O)[C@H](CCCCN)NC(=O)[C@H](CCCCN)NC(=O)[C@H](CS)NC(=O)[C@H](CC(=O)O)NC(=O)[C@H](CCCCN)NC(=O)[C@H](CC(=O)O)NC(=O)[C@H](CO)NC(=O)[C@H](CCC(N)=O)NC(=O)[C@H](CS)NC(=O)[C@@H]1CCCN1C(=O)[C@@H](N)CCCCN)C(C)C)[C@@H](C)CC)C(C)C)C(=O)N[C@@H](Cc1c[nH]c2ccccc12)C(=O)O [CaNCR13] (H-KPCQSDKDCKKFACRKPKVPKCINGFCKCVRIW-OH; N-terminus assumed) | Only dead cells were visible | broad-spectrum activity | aggregation of shrunken cells in a spider net like matrix | did not |  |  |  | 
2 | CC[C@H](C)[C@H](NC(=O)[C@H](CCCCN)NC(=O)[C@H](CO)NC(=O)[C@H](CCCNC(=N)N)NC(=O)[C@@H]1CCCN1C(=O)[C@H](CS)NC(=O)[C@H](CCCNC(=N)N)NC(=O)[C@H](Cc1ccc(O)cc1)NC(=O)[C@H](CCCCN)NC(=O)[C@H](CCCCN)NC(=O)[C@H](CS)NC(=O)[C@H](CC(=O)O)NC(=O)[C@@H](NC(=O)[C@H](CCCNC(=N)N)NC(=O)[C@@H](NC(=O)[C@H](CCCCN)NC(=O)[C@H](CS)NC(=O)[C@@H](NC(=O)[C@H](CCSC)NC(=O)[C@@H](N)CCCCN)[C@@H](C)CC)[C@@H](C)O)C(C)C)C(=O)N[C@@H](CCCCN)C(=O)N[C@@H](CC(=O)O)C(=O)N[C@@H](CS)C(=O)N[C@H](C(=O)N[C@@H](CCCCN)C(=O)NCC(=O)N[C@@H](Cc1ccc(O)cc1)C(=O)N[C@@H](CS)C(=O)N[C@@H](CCCNC(=N)N)C(=O)N[C@@H](CS)C(=O)N[C@H](C(=O)N[C@@H](CCCNC(=N)N)C(=O)N[C@@H](CCCCN)C(=O)N[C@@H](CCCCN)C(=O)O)C(C)C)C(C)C [CaNCR63] (H-KMICKTRVDCKKYRCPRSKIKDCVKGYCRCVRKK-OH; N-terminus assumed) | rough cell surface, lysis and flattening of the cells | broad-spectrum activity | Flattening of cells; also recorded: aggregation of shrunken cells in a spider net like matrix | DNA remained in the wells | 6.25 µM (≈ 25.8 µg/mL) |  |  | 
3 | CC[C@H](C)[C@H](NC(=O)[C@H](CCCCN)NC(=O)[C@H](CO)NC(=O)[C@H](CCCNC(=N)N)NC(=O)[C@@H]1CCCN1C(=O)[C@H](CS)NC(=O)[C@H](CCCNC(=N)N)NC(=O)[C@H](Cc1ccc(O)cc1)NC(=O)[C@H](CCCCN)NC(=O)[C@H](CCCCN)NC(=O)[C@H](CS)NC(=O)[C@H](CC(=O)O)NC(=O)[C@@H](NC(=O)[C@H](CCCNC(=N)N)NC(=O)[C@@H](NC(=O)[C@H](CCCCN)NC(=O)[C@H](CS)NC(=O)[C@@H](NC(=O)[C@H](CCSC)NC(=O)[C@@H](N)CCCCN)[C@@H](C)CC)[C@@H](C)O)C(C)C)C(N)=O [CaNCR63_1-20] (H-KMICKTRVDCKKYRCPRSKI-NH2; N-terminus assumed) | rough cell surface, lysis and flattening of the cells |  | most similar to the control | less efficient than either the full-length peptide or the C-terminal CaNCR63_15-34 |  | 6.25 µM (≈ 15.4 µg/mL) | 25 µM (≈ 61.4 µg/mL) | 
4 | CC(C)[C@H](NC(=O)CNC(=O)[C@H](CCCNC(=N)N)NC(=O)[C@H](CCCCN)NC(=O)[C@@H]1CCCN1C(=O)[C@H](CCCCN)NC(=O)[C@@H](N)CS)C(=O)N[C@@H](CC(N)=O)C(=O)N[C@@H](Cc1ccccc1)C(=O)N[C@@H](CCCNC(=N)N)C(=O)N[C@@H](CS)C(=O)N[C@@H](CCCNC(=N)N)C(=O)N[C@@H](CCCCN)C(=O)NCC(=O)N[C@@H](CCCCN)C(=O)N[C@@H](CS)C(=O)N[C@@H](Cc1ccccc1)C(=O)N1CCC[C@H]1C(=O)N[C@H](C(=O)N[C@@H](CCCNC(=N)N)C(N)=O)C(C)C [MsNCR463_16-35] (H-CKPKRGVNFRCRKGKCFPVR-NH2; N-terminus assumed) | budding of vesicles; also recorded: Filament-like structures |  | Flattening of cells | DNA remained in the wells | 1.6 µM (≈ 3.81 µg/mL) |  | 3.125 µM (≈ 7.43 µg/mL) | 3.1 µM (≈ 7.37 µg/mL)
5 | CC[C@H](C)[C@H](NC(=O)[C@H](CCCNC(=N)N)NC(=O)[C@H](CCCNC(=N)N)NC(=O)[C@H](CS)NC(=O)[C@H](CCCNC(=N)N)NC(=O)[C@H](CCCNC(=N)N)NC(=O)[C@H](CCC(=O)O)NC(=O)[C@@H](NC(=O)[C@H](CS)NC(=O)[C@H](CC(C)C)NC(=O)[C@@H](NC(=O)[C@H](CCCCN)NC(=O)[C@H](Cc1ccc(O)cc1)NC(=O)[C@@H](NC(=O)[C@H](CCCCN)NC(=O)[C@H](CO)NC(=O)[C@H](CS)NC(=O)[C@H](CCCNC(=N)N)NC(=O)[C@H](Cc1ccccc1)NC(=O)[C@H](CCCNC(=N)N)NC(=O)[C@H](CC(C)C)NC(=O)[C@H](CS)NC(=O)[C@H](CC(=O)O)NC(=O)[C@H](CO)NC(=O)[C@H](CC(=O)O)NC(=O)[C@H](CC(N)=O)NC(=O)[C@H](CC(C)C)NC(=O)[C@H](CS)NC(=O)[C@H](CCCNC(=N)N)NC(=O)[C@H](CC(C)C)NC(=O)CNC(=O)[C@H](CO)NC(=O)[C@@H]1CCCN1)[C@@H](C)CC)C(C)C)[C@@H](C)CC)C(=O)N[C@@H](CCCCN)C(=O)N[C@@H](CCSC)C(=O)N[C@@H](Cc1c[nH]cn1)C(=O)O [PsNCR352] | cell form was preserved | broad-spectrum activity | Flattening of cells; also recorded: aggregation of shrunken cells in a spider net like matrix | did not | 6.25 µM (≈ 27.3 µg/mL) |  |  | 
